The text below walks through data of paper PMC8213057, “Targeting ALK2: An Open Science Approach to Developing Therapeutics for the Treatment of Diffuse Intrinsic Pontine Glioma” (Journal of Medicinal Chemistry, 2020).

For one assay, the target named is T1, TAK1 (Homo sapiens, UniProt O43318).
T1 sequence (O43318 1-303 limits assumed): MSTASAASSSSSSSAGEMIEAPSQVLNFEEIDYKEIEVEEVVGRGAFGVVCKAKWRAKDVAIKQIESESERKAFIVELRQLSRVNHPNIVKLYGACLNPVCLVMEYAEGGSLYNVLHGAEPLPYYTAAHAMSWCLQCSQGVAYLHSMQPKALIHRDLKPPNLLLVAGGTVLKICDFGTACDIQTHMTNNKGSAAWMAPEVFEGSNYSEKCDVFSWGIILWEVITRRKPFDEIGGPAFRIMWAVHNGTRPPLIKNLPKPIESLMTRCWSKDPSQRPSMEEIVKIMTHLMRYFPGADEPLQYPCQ
Briefly: biochemical. The settings on record: read-out: % enzyme activity, 1 μM; Run 1, Run 2.

The next assay deals with MST4 (Homo sapiens, UniProt Q9P289). As to conditions: 1 μM; Run 1, Run 2.
Assay [1] addresses T2, CK1d (Homo sapiens, UniProt P48730). Briefly: biochemical. As to conditions: read-out: % enzyme activity, 1 μM; Run 1, Run 2.
Another assay deals with PDGFRb (Homo sapiens, UniProt P09619). Briefly: biochemical. As to conditions: read-out: % enzyme activity, 1 μM; Run 1, Run 2.
The target in another assay is T3, MST1/STK4 (Homo sapiens, UniProt Q13043).
T3 sequence (Q13043 1-487): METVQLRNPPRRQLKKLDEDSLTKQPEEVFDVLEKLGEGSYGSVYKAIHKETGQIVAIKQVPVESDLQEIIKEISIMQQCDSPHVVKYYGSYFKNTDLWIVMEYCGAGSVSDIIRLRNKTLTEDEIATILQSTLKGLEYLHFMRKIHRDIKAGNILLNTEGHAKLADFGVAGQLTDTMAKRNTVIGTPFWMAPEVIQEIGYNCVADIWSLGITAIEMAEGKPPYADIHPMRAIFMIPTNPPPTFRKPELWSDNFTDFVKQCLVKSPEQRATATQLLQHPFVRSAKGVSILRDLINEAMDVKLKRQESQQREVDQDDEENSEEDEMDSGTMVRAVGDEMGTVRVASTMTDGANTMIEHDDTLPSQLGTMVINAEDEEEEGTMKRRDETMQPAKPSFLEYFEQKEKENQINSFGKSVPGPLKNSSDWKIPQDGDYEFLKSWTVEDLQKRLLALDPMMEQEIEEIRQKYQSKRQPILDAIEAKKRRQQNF
As to conditions: 1 μM; Run 1, Run 2.

The target in a further assay is HCK (Homo sapiens, UniProt P08631). The settings on record: 1 μM; Run 1, Run 2.
A further assay concerns the target COT1/MAP3K8 (Homo sapiens, UniProt P41279). The assay can be described thus: biochemical. As to conditions: read-out: % enzyme activity, 1 μM; Run 1, Run 2.
A further assay has as its target WNK3 (Homo sapiens, UniProt Q9BYP7). As to conditions: 1 μM; Run 1, Run 2.
A further assay deals with T4, SNARK/NUAK2 (Homo sapiens, UniProt Q9H093).
T4 sequence (Q9H093 1-628): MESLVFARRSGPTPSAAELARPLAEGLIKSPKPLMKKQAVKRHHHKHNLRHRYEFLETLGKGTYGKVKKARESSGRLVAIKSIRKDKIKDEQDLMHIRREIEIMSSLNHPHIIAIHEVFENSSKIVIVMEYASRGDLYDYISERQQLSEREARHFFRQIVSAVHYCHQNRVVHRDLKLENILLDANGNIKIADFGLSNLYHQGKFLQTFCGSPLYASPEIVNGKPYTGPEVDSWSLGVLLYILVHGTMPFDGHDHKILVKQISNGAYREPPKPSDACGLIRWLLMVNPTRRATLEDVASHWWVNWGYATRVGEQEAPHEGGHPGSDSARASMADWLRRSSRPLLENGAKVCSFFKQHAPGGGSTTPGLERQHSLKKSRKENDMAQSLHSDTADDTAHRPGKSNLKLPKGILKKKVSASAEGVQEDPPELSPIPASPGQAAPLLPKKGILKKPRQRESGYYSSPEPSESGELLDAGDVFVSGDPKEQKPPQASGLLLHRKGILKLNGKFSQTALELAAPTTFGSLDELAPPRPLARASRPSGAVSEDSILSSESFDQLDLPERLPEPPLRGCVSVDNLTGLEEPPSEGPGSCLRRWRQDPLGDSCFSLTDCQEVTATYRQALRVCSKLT
As to conditions: 1 μM; Run 1, Run 2.

In the next assay the target is CK1g1 (Homo sapiens, UniProt Q9HCP0). As to conditions: 1 μM; Run 1, Run 2.
The target in assay [2] is T2, CK1d. As to conditions: 1 μM; Run 1, Run 2.
The next assay concerns the target T5, IKKb/IKBKB (Homo sapiens, UniProt O14920).
T5 sequence (O14920 1-756): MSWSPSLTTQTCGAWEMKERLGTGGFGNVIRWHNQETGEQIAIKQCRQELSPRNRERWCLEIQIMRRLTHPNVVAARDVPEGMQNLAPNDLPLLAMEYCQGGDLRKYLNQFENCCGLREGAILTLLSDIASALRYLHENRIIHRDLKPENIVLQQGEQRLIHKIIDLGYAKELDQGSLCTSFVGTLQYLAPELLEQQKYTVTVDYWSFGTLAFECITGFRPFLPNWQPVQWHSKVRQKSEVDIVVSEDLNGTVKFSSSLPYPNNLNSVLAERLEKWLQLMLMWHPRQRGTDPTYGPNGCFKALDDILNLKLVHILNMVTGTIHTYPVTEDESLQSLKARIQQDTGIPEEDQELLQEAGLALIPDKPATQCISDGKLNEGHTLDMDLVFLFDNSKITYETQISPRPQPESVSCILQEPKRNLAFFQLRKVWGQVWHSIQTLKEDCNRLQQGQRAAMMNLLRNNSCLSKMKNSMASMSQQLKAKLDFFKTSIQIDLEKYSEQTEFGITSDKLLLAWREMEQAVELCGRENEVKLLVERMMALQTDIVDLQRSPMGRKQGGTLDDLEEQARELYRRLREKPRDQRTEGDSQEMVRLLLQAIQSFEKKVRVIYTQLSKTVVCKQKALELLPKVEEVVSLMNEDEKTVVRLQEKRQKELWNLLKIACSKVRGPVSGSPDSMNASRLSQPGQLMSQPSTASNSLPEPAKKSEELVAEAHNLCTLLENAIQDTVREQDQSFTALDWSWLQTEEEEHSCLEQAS
The settings on record: 1 μM; Run 1, Run 2.

T2 sequence (P48730 whole entry): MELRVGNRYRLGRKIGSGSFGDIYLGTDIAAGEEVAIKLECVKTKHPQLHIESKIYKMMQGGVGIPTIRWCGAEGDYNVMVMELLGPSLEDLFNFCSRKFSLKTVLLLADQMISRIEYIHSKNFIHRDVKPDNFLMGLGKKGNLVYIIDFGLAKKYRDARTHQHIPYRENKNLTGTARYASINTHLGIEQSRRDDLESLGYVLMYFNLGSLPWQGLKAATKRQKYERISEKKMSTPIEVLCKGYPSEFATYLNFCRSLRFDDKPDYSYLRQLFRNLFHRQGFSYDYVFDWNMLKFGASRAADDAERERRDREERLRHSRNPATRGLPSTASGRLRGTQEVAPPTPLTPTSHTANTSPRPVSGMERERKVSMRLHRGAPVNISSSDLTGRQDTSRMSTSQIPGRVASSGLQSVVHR
Chain of CK1g1 (Q9HCP0 whole entry): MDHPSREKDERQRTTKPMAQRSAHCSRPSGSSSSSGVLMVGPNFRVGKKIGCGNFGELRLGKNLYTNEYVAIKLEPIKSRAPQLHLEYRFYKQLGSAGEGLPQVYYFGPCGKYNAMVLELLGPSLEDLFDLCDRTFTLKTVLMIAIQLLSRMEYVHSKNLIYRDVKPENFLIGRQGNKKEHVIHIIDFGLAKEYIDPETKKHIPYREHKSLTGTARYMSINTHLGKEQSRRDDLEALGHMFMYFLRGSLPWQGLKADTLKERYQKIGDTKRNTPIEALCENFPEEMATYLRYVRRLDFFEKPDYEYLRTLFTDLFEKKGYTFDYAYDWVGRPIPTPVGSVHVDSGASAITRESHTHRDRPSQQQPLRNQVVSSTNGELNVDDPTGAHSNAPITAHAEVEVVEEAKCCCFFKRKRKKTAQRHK
Chain of HCK (P08631 whole entry): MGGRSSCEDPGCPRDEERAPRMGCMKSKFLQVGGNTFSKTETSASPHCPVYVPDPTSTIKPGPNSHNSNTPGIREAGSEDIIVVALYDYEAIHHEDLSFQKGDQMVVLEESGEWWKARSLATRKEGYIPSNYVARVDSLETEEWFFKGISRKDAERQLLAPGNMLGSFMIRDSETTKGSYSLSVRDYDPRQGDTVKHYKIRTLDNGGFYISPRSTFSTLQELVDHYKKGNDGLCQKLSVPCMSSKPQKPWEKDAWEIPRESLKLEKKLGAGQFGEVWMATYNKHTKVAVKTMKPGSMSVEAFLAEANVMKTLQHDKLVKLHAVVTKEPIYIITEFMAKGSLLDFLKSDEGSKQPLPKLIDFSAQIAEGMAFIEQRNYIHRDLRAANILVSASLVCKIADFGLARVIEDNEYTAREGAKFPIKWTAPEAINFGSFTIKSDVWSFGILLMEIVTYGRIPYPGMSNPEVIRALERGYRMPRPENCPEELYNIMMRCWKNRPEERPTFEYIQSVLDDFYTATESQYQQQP
Chain of PDGFRb (P09619 33-1106): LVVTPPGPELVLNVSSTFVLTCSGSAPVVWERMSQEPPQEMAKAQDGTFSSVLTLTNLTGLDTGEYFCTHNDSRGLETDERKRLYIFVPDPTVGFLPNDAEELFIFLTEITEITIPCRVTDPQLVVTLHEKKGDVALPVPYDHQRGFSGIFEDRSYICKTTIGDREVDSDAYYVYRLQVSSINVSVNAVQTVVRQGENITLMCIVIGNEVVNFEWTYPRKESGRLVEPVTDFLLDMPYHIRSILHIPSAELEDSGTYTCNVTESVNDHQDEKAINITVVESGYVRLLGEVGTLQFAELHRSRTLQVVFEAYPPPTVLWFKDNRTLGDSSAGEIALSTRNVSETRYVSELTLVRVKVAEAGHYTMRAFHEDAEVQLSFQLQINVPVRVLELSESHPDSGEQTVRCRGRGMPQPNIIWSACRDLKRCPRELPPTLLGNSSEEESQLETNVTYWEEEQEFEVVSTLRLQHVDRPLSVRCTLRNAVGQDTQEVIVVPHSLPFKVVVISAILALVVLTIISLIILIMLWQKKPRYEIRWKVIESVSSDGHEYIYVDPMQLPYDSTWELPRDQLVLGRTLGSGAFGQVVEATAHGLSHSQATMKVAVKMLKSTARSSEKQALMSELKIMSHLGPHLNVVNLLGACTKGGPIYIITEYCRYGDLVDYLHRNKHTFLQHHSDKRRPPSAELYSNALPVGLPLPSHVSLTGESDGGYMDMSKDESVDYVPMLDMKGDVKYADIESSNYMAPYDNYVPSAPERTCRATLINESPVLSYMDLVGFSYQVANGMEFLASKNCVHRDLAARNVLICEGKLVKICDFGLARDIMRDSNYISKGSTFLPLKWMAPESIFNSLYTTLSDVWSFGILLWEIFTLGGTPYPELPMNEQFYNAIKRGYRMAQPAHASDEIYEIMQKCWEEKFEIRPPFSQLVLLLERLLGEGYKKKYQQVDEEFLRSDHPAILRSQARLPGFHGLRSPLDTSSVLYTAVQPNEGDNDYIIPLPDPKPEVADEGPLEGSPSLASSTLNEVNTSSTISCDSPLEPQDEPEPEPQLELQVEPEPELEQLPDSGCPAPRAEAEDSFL
Chain of MST4 (Q9P289 whole entry): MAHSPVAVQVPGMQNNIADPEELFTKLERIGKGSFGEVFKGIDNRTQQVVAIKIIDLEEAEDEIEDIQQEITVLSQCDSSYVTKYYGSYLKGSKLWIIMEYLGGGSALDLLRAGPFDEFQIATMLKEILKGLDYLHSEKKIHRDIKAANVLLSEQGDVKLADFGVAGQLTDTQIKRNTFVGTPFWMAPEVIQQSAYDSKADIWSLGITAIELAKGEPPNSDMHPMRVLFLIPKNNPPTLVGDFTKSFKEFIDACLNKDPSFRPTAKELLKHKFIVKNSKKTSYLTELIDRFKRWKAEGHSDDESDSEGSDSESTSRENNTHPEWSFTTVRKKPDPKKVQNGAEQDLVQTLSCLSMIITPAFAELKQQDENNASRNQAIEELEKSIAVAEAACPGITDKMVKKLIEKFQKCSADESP
Chain of COT1/MAP3K8 (P41279 whole entry): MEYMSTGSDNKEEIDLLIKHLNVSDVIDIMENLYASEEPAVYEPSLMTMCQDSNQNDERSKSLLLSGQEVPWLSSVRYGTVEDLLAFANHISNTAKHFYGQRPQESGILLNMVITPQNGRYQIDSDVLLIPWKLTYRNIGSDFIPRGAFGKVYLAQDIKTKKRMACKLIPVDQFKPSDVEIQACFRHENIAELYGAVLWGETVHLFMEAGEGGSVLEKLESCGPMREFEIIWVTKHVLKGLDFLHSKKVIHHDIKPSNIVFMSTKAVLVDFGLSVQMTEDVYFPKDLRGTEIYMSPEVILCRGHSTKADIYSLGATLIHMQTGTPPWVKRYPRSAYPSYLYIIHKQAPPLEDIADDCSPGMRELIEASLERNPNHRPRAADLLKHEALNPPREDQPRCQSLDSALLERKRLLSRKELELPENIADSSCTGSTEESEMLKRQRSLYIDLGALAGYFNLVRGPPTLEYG

On to `COc1cc(-c2cncc(-c3ccc(N4C[C@@H](C)N(C)[C@@H](C)C4)cc3)c2C)cc(F)c1C(N)=O` [Compound 26c, 2-Fluoro-6-methoxy-4-(4-methyl-5-(4-((3R,5S)-3,4,5-trimethylpiperazin-1-yl)phenyl)pyridin-3-yl)benzamide], for which the remaining activity at 1 µM on TAK1 was determined as 99.1%; at CK1d [1], 108%; on PDGFRb it was 92.1%; on COT1/MAP3K8, 92.9%. In addition, the “% enzyme activity” value on MST4 is listed as 90.97%; at MST1/STK4 it was 101.65%; at HCK it was 88.06%; on WNK3, 92.59%; at SNARK/NUAK2 it was 94.38%; at CK1g1, 69.61%. The “% enzyme activity” value is 108.05% at CK1d [2] and 100.59% at IKKb/IKBKB.

With `COc1cc(-c2cncc(-c3ccc(N4CCN(C)CC4)cc3)c2C)cc(F)c1C(N)=O` [Compound 26a, 2-Fluoro-6-methoxy-4-(4-methyl-5-(4-(4-methylpiperazin-1-yl)phenyl)pyridin-3-yl)benzamide], the remaining activity at 1 µM amounted to 98.5% on TAK1, 98.1% at CK1d [1], 77.3% at PDGFRb and 88.7% at COT1/MAP3K8. Also, the “% enzyme activity” value stood at 85.32% at MST4; 100.26% on MST1/STK4; 91.96% at HCK; 88.15% on WNK3; 93.71% at SNARK/NUAK2; 55.41% on CK1g1. Further, the entries for the “% enzyme activity” value on CK1d [2] and at IKKb/IKBKB were 94.27% and 101.39%, respectively.
